The values below come from publication PMC4831007, “Discovery of a specific inhibitor of human GLUT5 by virtual screening and in vitro transport evaluation” (Scientific Reports, 2016).

Read-outs that look alike come from different tables or passages of the source.

For experiment [1], the target named is T1, GLUT1 (Homo sapiens, UniProt P11166).
T1 construct: gene SLC2A1; full length, N-terminal His6 tag, Sf21 insect cells, purified in DDM, reconstituted in proteoliposomes
T1 sequence (P11166 1-492): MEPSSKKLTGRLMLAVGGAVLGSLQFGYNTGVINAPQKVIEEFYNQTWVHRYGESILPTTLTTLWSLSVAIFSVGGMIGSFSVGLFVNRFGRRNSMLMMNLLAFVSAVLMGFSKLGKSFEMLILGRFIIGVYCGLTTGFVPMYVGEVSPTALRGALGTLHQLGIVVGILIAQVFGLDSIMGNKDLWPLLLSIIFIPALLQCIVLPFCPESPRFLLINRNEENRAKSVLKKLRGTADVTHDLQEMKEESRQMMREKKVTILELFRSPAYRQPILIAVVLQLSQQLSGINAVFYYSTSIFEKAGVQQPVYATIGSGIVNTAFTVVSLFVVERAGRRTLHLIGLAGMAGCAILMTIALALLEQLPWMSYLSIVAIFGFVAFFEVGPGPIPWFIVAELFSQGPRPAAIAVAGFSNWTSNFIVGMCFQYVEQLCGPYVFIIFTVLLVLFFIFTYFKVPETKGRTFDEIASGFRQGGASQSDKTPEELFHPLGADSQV
Nature of the experiment: […]-glucose entrance counter-flow in proteoliposomes. The following applies: 10 μM 14C-glucose outside, 200 mM glucose inside; pH 7.5; 1 min; labelled compound. The class given is biochemical.

The target of another experiment is T2, GLUT4 (Homo sapiens, UniProt P14672).
T2 construct: gene SLC2A4; full length, N-terminal His6 tag, Sf21 insect cells, purified in DDM, reconstituted in proteoliposomes
T2 sequence (P14672 1-509): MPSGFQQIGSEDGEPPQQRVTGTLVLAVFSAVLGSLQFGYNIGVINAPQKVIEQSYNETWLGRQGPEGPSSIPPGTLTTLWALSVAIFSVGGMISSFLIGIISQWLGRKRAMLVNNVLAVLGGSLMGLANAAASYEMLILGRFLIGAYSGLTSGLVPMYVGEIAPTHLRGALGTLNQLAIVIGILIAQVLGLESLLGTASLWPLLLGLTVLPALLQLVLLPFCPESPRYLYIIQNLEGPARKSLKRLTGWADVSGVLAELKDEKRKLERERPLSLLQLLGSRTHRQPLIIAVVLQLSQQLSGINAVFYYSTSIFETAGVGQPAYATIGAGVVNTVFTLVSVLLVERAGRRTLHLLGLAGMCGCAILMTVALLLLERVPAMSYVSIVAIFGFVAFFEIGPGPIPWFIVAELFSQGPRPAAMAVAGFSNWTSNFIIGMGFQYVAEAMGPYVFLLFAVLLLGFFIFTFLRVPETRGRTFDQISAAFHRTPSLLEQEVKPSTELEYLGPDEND
The description is as above. Type of experiment: biochemical. The following applies: 10 μM 14C-glucose outside, 200 mM glucose inside; pH 7.5; 1 min; labelled compound.

The target in experiment [2] is T3, GLUT2 (Homo sapiens, UniProt P11168).
T3 construct: gene SLC2A2; full length, N-terminal His6 tag, Sf21 insect cells, purified in DDM, reconstituted in proteoliposomes
T3 sequence (P11168 1-524): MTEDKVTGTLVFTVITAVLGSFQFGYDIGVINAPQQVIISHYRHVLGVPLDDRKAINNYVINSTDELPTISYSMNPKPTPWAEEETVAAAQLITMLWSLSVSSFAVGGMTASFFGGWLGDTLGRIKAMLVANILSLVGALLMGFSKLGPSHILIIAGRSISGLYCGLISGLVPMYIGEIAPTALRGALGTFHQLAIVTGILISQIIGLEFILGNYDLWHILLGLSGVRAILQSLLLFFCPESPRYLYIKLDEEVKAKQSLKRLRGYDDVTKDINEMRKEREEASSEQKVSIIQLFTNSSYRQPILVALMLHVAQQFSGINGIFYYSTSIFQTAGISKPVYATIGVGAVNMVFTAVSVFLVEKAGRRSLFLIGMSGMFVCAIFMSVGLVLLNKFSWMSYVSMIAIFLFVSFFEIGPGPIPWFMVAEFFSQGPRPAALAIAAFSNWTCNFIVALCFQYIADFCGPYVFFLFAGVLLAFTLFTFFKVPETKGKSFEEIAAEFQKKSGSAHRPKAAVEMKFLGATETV
Described as above. Type of experiment: biochemical. The settings on record: 10 μM 14C-glucose outside, 200 mM glucose inside; pH 7.5; 1 min; labelled compound.

Another experiment has as its target T4, GLUT3 (Homo sapiens, UniProt P11169).
T4 construct: gene SLC2A3; full length, N-terminal His6 tag, Sf21 insect cells, purified in DDM, reconstituted in proteoliposomes
T4 sequence (P11169 1-496): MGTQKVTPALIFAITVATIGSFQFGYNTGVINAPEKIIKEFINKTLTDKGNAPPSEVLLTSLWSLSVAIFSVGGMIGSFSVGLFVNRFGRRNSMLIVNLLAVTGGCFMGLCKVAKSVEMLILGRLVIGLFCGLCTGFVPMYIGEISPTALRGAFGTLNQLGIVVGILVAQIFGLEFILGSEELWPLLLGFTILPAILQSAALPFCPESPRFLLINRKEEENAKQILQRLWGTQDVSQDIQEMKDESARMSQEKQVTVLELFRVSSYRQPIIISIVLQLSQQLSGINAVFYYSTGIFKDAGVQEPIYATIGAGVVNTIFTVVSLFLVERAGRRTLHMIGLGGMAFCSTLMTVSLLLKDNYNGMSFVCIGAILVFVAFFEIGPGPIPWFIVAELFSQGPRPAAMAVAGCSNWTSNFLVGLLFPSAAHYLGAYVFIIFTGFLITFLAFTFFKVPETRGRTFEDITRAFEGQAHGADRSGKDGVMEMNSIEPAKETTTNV
Described as above. The class given is biochemical. The following applies: 10 μM 14C-glucose outside, 200 mM glucose inside; pH 7.5; 1 min; labelled compound.

Experiment [3] addresses T1, GLUT1. The experiment is described as above. Type of experiment: biochemical.
In the next experiment the target is T5, native human GLUT5 (Homo sapiens, UniProt P22732).
T5 construct: gene SLC2A5; native full-length transporter in MCF7 breast cancer cells
T5 sequence (P22732 1-501): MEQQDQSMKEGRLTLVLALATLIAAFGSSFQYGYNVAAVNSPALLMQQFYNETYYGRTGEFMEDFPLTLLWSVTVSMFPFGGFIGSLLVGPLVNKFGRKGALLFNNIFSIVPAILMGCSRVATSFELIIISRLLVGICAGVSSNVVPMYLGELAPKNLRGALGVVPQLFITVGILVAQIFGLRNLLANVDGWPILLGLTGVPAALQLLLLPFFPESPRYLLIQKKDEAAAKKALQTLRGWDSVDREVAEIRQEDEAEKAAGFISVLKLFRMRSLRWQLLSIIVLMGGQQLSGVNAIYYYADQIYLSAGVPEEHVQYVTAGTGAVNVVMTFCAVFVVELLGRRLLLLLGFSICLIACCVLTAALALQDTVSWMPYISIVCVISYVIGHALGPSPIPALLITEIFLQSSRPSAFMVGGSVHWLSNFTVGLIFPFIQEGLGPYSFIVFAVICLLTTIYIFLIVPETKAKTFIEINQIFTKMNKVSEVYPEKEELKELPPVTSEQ
Put plainly: […]-fructose uptake in MCF7 cells, Dixon plot. The class given is cell-based. The settings on record: competitive with fructose; 50 μM cytochalasin B present to block GLUT2; 3-20 mM fructose; 2 min; 22 °C.

A further experiment deals with T6, GlcPSe (Staphylococcus epidermidis, UniProt A0A0H2VG78, F348H).
T6 construct: gene glcP
Put plainly: biochemical. The settings on record: read-out: % inhibition at 2 mM.

The target in experiment [4] is T3, GLUT2. Put plainly: […]-fructose entrance counter-flow in proteoliposomes. Type of experiment: biochemical. The following applies: 10 μM 14C-fructose outside, 200 mM fructose inside; pH 7.5; 1 min; labelled compound.

T6 sequence (A0A0H2VG78 whole entry F348H): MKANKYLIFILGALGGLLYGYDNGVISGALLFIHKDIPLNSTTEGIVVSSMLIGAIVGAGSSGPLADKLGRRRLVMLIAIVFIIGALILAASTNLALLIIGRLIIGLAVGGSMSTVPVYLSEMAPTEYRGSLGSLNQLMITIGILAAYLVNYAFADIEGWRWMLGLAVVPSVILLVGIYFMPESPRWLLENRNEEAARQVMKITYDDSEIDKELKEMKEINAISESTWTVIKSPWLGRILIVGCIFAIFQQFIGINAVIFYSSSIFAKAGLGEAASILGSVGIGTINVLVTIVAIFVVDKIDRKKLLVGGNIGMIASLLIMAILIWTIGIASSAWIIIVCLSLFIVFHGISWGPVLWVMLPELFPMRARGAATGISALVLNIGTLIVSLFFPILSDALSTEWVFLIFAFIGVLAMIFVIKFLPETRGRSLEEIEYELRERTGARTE

Consider `OC[C@H]1OC(O)[C@H](O)[C@@H](O)[C@@H]1O` (stereo partly drawn) [glucose], for which the “14C-glucose entrance counter-flow in proteoliposomes” value at GLUT1 [1] was “Glucose transport of GLUT1, GLUT2, GLUT3 and GLUT4”; on GLUT4, “Glucose transport of GLUT1, GLUT2, GLUT3 and GLUT4”; on GLUT2 [2] it was “Glucose transport of GLUT1, GLUT2, GLUT3 and GLUT4”; at GLUT3, “Glucose transport of GLUT1, GLUT2, GLUT3 and GLUT4”.

Take `O=C(CCc1ccc(O)cc1)c1c(O)cc(O)cc1O` [phloretin]: at GLUT1 [3], the “% inhibition at 2 mM” value was “Effect of common GLUT1 inhibitors on the relative transport activity of GLUT5, GLUT1 and GlcPSe”. The Ki is the dissociation constant of the complex between target and ligand, obtained from inhibition or displacement. Lower therefore signals higher affinity. Broadly, the inhibition is the relative decrease from the control value, in per cent. The compound `CS(=O)(=O)c1ccc(Nc2ccc3c(c2)OCO3)c([N+](=O)[O-])c1` [MSNBA, N-[4-(methylsulfonyl)-2-nitrophenyl]-1,3-benzodioxol-5-amine] had a Ki at native human GLUT5 of 3.2 ± 0.4 µM. Besides, the inhibition at 2000 µM at GlcPSe stood at 75%. As for `C=C1[C@@H](C)[C@H]2[C@H](Cc3ccccc3)NC(=O)[C@]23OC(=O)/C=C/[C@H](O)CCC[C@@H](C)C/C=C/[C@H]3[C@@H]1O` [cytochalasin B], the “% inhibition at 2 mM” value at GLUT1 [3] (10 μM 14C-glucose outside, 200 mM glucose inside, pH 7.5, 1 min) is “Effect of common GLUT1 inhibitors on the relative transport activity of GLUT5, GLUT1 and GlcPSe”. With `OCC1(O)OC[C@@H](O)[C@@H](O)[C@@H]1O` (stereo partly drawn) [fructose], the “14C-fructose entrance counter-flow in proteoliposomes” value on GLUT2 [4] is “fructose transport of GLUT2 were assayed by the entrance counter-flow method in proteoliposomes”.
